Measurements reported in patent US6296785A, “Indeno-fused photochromic naphthopyrans” (PPG Industries Ohio, Inc., priority 2000, dated 2001).

What was measured:
Assay type in all cases: physicochemical
[1] = photochromic response of test squares on an optical bench (sensitivity, saturation optical density, bleach rate); settings: for ΔOD @ Saturation (Band A) / ΔOD @ Saturation (Band B): UV exposure 15 minutes; for ΔOD @ Saturation (Band A) / Sensitivity ΔOD/MIN (Band A) / ΔOD @ Saturation (Band B) / Sensitivity ΔOD/MIN (Band B): 72° F. (22.2° C.), polymer test square; for Sensitivity ΔOD/MIN (Band A) / Sensitivity ΔOD/MIN (Band B): first five (5) seconds of UV exposure, expressed per minute; for Bleach Rate T 1/2: measured at band B, room temperature (72° F., 22.2° C.) after removal of activating light
Protocol: (§1) Testing was done with the photochromic compounds described in Examples 1 through 20 and Comparative Examples 1 through 3 in the following manner. A quantity of photochromic compound calculated to yield a 1.5×10^-3 molal solution was added to a flask containing 50 grams of a monomer blend of 4 parts ethoxylated bisphenol A dimethacrylate (BPA 2EO DMA), 1 part poly(ethylene glycol) 600 dimethacrylate, and 0.033 weight percent 2,2'-azobis(2-methyl propionitrile) (AIBN). The photochromic compound was dissolved into the monomer blend by stirring and gentle heating, if necessary. After a clear solution was obtained, it was poured into a flat sheet mold having the interior dimensions of 2.2 mm×6 inches (15.24 cm)×6 inches (15.24 cm). The mold was sealed and placed in a horizontal air flow, programmable oven programmed to increase the temperature from 40° C. to 95° C. over a 5 hour interval, hold the temperature at 95° C. for 3 hours, lower it to 60° C. over a 2 hour interval and then hold it at 60° C. for 16 hours. After the mold was opened, the polymer sheet was cut using a diamond blade saw into 2 inch (5.1 centimeters) test squares.
(§2) The photochromic test squares of Part A were tested for photochromic response rates on an optical bench. Prior to testing on the optical bench, the photochromic test squares were exposed to 365 nanometer ultraviolet light for about 15 minutes to activate the photochromic compounds and then placed into a 76° C. oven for about 15 minutes to bleach the photochromic compounds. The test squares were then cooled to room temperature, exposed to fluorescent room lighting for at least 2 hours and then kept covered for at least 2 hours prior to testing on an optical bench maintained at 72° F. (22.2° C.). The bench was fitted with a 250 watt Xenon arc lamp, a remote controlled shutter, a copper sulfate bath acting as a heat sink for the arc lamp, a Schott WG-320 nm cut-off filter which removes short wavelength radiation; neutral density filter(s) and a sample holder in which the square to be tested was inserted. The power output of the optical bench, i.e., the dosage of light that the sample lens would be exposed to, was calibrated with a photochromic test square used as a reference standard. […] The UV-A detector was placed into the sample holder and the light output was measured. Adjustments to the power output were made by increasing or decreasing the lamp wattage or by adding or removing neutral density filters in the light path.
A monitoring, collimated beam of light from a tungsten lamp was passed through the square at a small angle (approximately 30°) normal to the square. After passing through the square, the light from the tungsten lamp was directed to a detector through Spectral Energy Corp. GM-200 monochromator set at the previously determined visible lambda max of the photochromic compound being measured. The output signals from the detector were processed by a radiometer.
(§3) Change in optical density (ΔOD) was determined by inserting a test square in the bleached state into the sample holder, adjusting the transmittance scale to 100%, opening the shutter from the Xenon lamp to provide ultraviolet radiation to change the test square from the bleached state to an activated (i.e., darkened) state, measuring the transmittance in the activated state, and calculating the change in optical density according to the formula: ΔOD=log(100/% Ta), where % Ta is the percent transmittance in the activated state and the logarithm is to the base 10.
The ΔOD/Min, which represents the sensitivity of the photochromic compound's response to UV light, was measured over the first five (5) seconds of UV exposure, then expressed on a per minute basis. The saturation optical density (ΔOD@ Saturation) was taken under identical conditions as the ΔOD/Min, except UV exposure was continued for 15 minutes. […]

[2] = lambda max (Vis) of activated photochromic test squares in a Varian Cary 3 uv-visible spectrophotometer; settings: activated form in test square
Protocol: as §1
The lambda max (Vis) is the wavelength in the visible spectrum at which the maximum absorption of the activated (colored) form of the photochromic compound in a test square occurs. The lambda max (Vis) wavelengths reported in Table 1 were determined by testing the photochromic test square polymerizates of Part A in a Varian Cary 3 uv-visible spectrophotometer. The bleach rate (T 1/2) is the time interval in seconds for the absorbance of the activated form of the photochromic compound in the test squares to read one half the highest absorbance at room temperature (72° F., 22.2° C.) after removal of the source of activating light.
For each lambda max visible, the corresponding optical density (Δ OD/Min and Δ OD at saturation) for the desired compounds of the Examples and Comparative Examples are tabulated in Table 1 for the two bands (A and B) of peak absorption for each compound. Table 1 also includes the bleach rate (T 1/2) for each of the compounds as measured at band B. The ratings of the Relative Δ OD at Saturation Test for the bands A and B of each of the Examples and Comparative Examples are calculated as follows: Δ OD at saturation (Band A)/Δ OD at saturation (Band B)×100.

[3] = Relative ΔOD at Saturation Test; settings: ΔOD at saturation (Band A)/ΔOD at saturation (Band B)×100
From the text: In accordance with the present invention, it has now been discovered that certain novel indeno[2,1-f]naphtho[1,2-b]pyrans having two absorption bands in the activated (colored) state, an acceptable fade rate, high activated intensity, a high coloration rate and a rating of 80 or higher in the Relative ΔOD at Saturation Test may be prepared. The Relative ΔOD at Saturation Test is described in Example 21. The ratings of the test are defined herein as the result obtained when the optical density of band "A" is divided by the optical density of band "B" and multiplied by 100. It is believed that compounds having a rating of 80 or higher are most valuable for formulating neutral grays, greens and browns for commercial photochromic ophthalmic eyeware.
as §1, §2
as §3, with “10. […]” for “10.”

Compound	ΔOD @ Saturation (Band A) [1]	Sensitivity ΔOD/MIN (Band A) [1]	ΔOD @ Saturation (Band B) [1]	Sensitivity ΔOD/MIN (Band B) [1]	Bleach Rate T 1/2 [1] [min]	λ MAX Vis (Band A) [2] [nm]	λ MAX Vis (Band B) [2] [nm]	Relative ΔOD at Saturation (rating) [3]
COc1ccc(C2(c3ccc(OC)cc3)C=Cc3c4c(c5cc(OC)c(OC)cc5c3O2)-c2ccccc2C4c2ccccc2)cc1 (stereo not shown) [Example 7, 3,3-di(4-methoxyphenyl)-6,7-dimethoxy-13-phenyl-3H,13H-indeno[2,1-f]naphtho[1,2-b]pyran]	0.66	0.17 ΔOD/MIN	0.43	0.16 ΔOD/MIN	3.43	460	577	153
CCC1(CC)c2cc(OC)c(OC)cc2-c2c1c1c(c3cc(OC)c(OC)cc23)OC(c2ccc(OC)cc2)(c2ccc(OC)cc2)C=C1 [Example 6, 3,3-di(4-methoxyphenyl)-6,7,10,11-tetramethoxy-13,13-diethyl-3H,13H-indeno[2,1-f]naphtho[1,2-b]pyran]	1.02	0.46 ΔOD/MIN	0.73	0.37 ΔOD/MIN	5.17	440	608	140
CCC1(O)c2ccccc2-c2c1c1c(c3ccccc23)OC(c2ccc(OC)cc2)(c2ccc(OC)cc2)C=C1 (stereo not shown) [Comp. Ex. 1, 3,3-di(4-methoxyphenyl)-13-hydroxy-13-ethyl-3H-13H-indeno[2,1-f]naphtho[1,2-b]pyran, reference compound]	0.16	0.21 ΔOD/MIN	0.27	0.29 ΔOD/MIN	0.783	437	562	59
CCCCC1(O)c2ccccc2-c2c1c1c(c3cc(OC)c(OC)cc23)OC(c2ccccc2)(c2ccc(N3CCOCC3)cc2)C=C1 (stereo not shown) [Example 16, 3-(4-morpholinophenyl)-3-phenyl-6,7-dimethoxy-13-hydroxy-13-butyl-3H,13H-indeno[2,1,-f]naphtho[1,2-b]pyran]	0.37	0.22 ΔOD/MIN	0.35	0.19 ΔOD/MIN	1.88	485	600	106
CCC1(OC)c2ccccc2-c2c1c1c(c3cc(OC)c(OC)cc23)OC(c2ccc(OC)cc2)(c2ccc(N3CCOCC3)cc2)C=C1 (stereo not shown) [Example 18, 3-(4-methoxyphenyl)-3-(4-morpholinophenyl)-6,7-dimethoxy-13-ethyl-13-methoxy-3H,13H-indeno[2,1-f]naphtho[1,2-b]pyran]	0.27	0.21 ΔOD/MIN	0.27	0.18 ΔOD/MIN	1.43	483	604	100
CCC1(O)c2ccccc2-c2c1c1c(c3cc(OC)c(OC)cc23)OC(c2ccccc2)(c2ccc(N3CCOCC3)cc2)C=C1 (stereo not shown) [Example 14, 3-(4-morpholinophenyl)-3-phenyl-6,7-dimethoxy-13-hydroxy-13-ethyl-3H,13H-indeno[2,1,-f]naphtho[1,2-b]pyran]	0.41	0.24 ΔOD/MIN	0.40	0.22 ΔOD/MIN	1.8	485	600	103
COc1ccc(C2(c3ccc(N(C)C)cc3)C=Cc3c4c(c5cc(OC)c(OC)cc5c3O2)-c2ccccc2C4(C)C)cc1 (stereo not shown) [Example 10, 3-(4-methoxyphenyl)-3-(4-dimethylaminophenyl)-6,7-dimethoxy-13,13-dimethyl-3H,13H-indeno[2,1-f]naphtho[1,2-b]pyran]	0.41	0.20 ΔOD/MIN	0.50	0.28 ΔOD/MIN	2.17	500	615	82
COc1ccc(C2(c3ccc(OC)cc3)C=Cc3c4c(c5cc(OC)c(OC)cc5c3O2)-c2ccccc2C4(C)C)cc1 [Example 4, 3,3-di(4-methoxyphenyl)-6,7-dimethoxy-13,13-dimethyl-3H-13H-indeno[2,1-f]naphtho[1,2-b]pyran]	1.11	0.39 ΔOD/MIN	0.71	0.22 ΔOD/MIN	4.45	455	576	156
